The values that follow come from patent US9107879B1, “Methods of increasing the cytotoxicity of chemotherapeutic agents with multisubstrate inhibitors of histone, protein-lys, polyamine acetylation, and polyamine metabolism” (Vanderbilt University, priority 2010, dated 2015).

One data set concerns GT41F skin fibroblasts. The data set can be described thus: 96-well MTS viability assay. The data set is classed as cell-based, human. The settings on record: 3 days; for sensitivity of normal fibroblasts compared with cancer cell lines: single agent. Background: Tetrazolium dyes change colour on reduction, which living cells bring about.
Another data set deals with H358 lung cancer cells. The data set can be described thus: 96-well MTS cell viability assay. The data set is classed as cell-based. The procedure:
Control cells were left untreated. […] Control cells were left untreated.
Cells were given fresh inhibitor on the first, second, and third days of treatment and viability was measured on the 4th day (i.e. 3 days post start of treatment).
(A) Structure of compound 2a. […] Averages of duplicate samples with standard deviations are shown.
(A) Structure of Spd-3a. (B) Western analysis of histone H3K9-acetylation and total histone H3, measured in control, untreated H358 lung cancer cells “C’ or in H358 cells incubated 12 hours in the presence of 50 μM Spd-2a or Spd-3a. Each lane represents 60 μg cellular protein. (C) [3H]-thymidine incorporation (counts per minute) into DNA of H358 cells during a 6 hour pulse beginning at 42 hours post-start of treatment. Treatments were as follows (bars 1-6 left to right): (1) control: no treatment; (2) CPT alone: 5 nM 18 hours; (3) 3a alone: 50 μM; (4-6) 3a+CPT: CPT (5 nm, 18 hours)+3a at indicated dose. After 18 hours, CPT was removed and medium was replaced with fresh medium containing Spd-3a at the indicated dose. Each bar represents the average of triplicates. (D) 3-day 96-well viability assay of H358 cells grown in the presence of increasing amounts of Spd-2a or Spd-3a, with or without CPT (5 nM 18 hours). […] Each data point represents the average of three wells.
Cells were plated in 96-well plates at 2000 cells per well and treated with the indicated doses of spd-3a. Cell viability was measured by the MTS assay 3 days later.
DLD-1 cells or H358 cells were plated in 96-well plates at 2000 cells per well and treated with the indicated doses of (A) spm-3 or (B) spm-2. (C) Cell viability was measured by the MTS assay 3 days later. Similar experiment using GT41 fibroblasts with spm2 or spm 3. Each assay point represents an average of duplicates.
Control cells received neither 1a nor camptothecin.
After overnight attachment, triplicate wells were treated with increasing concentrations of inhibitor 1a or 1b. Control wells were left untreated. One day later, and again 2 days later, the medium in the wells was removed and replaced with fresh medium containing 1a or 1b.

The target in another data set is T1, p300 catalytic domain (Homo sapiens, UniProt Q09472).
T1 construct: the catalytic domain of p300(965-1810); purchased Active Motif, Carlsbad, Calif
T1 sequence (Q09472 965-1810): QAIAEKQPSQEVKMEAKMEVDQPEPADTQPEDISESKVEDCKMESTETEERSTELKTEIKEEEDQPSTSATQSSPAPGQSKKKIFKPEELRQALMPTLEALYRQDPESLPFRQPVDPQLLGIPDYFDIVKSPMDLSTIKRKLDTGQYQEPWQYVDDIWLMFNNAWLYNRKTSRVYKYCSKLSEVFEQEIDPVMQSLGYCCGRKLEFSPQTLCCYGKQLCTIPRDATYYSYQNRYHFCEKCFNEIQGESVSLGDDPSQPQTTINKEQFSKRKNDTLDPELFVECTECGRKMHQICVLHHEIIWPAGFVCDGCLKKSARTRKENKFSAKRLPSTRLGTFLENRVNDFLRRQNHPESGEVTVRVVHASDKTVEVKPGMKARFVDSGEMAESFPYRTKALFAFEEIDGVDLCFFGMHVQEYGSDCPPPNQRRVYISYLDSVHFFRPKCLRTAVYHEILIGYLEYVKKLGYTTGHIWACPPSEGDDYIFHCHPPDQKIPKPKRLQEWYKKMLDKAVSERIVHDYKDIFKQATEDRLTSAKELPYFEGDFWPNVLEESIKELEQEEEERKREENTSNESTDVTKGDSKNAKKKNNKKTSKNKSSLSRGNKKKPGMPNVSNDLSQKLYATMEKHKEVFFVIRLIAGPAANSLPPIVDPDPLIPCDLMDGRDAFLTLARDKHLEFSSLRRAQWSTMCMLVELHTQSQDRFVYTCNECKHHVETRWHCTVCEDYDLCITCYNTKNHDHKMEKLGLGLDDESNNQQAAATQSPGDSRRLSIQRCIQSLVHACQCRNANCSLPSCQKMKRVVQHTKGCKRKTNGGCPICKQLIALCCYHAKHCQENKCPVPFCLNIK
The data set can be described thus: fluorescent HAT assay kit (Active Motif), 96-well. In kind it is biochemical. As to the method:
(A) Structures of compound 1a (spermidine CoA), and the acetylated side chain of a lysine residue of a polypeptide chain. (B) Inhibition of p300 acetylating activity as a function of 1a concentration. The catalytic domain of recombinant p300 (1284-1660) was assayed under steady state conditions using an N-terminal acetylated histone H4 peptide substrate, Ac-H4(1-19)-NH2. Closed circles represent experimental data points; plain line represents theoretical profile based on data reduction software (Prism) using a one site inhibition model. (C) In vitro assay of p300 activity using a 96-well assay kit (ActivMotif) and an H3 peptide substrate (5-23), according to manufacturer's instructions. Bars represent average of duplicates. […]
Reactions were set up in duplicate following the protocol supplied by the kit. […] Activity is measured in fluorescence units. […]
Assays were performed using the fluorescent HAT assay kit (Active Motif, Carlsbad, Calif.), an H3 peptide as substrate (residues 5-23), the p300 catalytic domain as enzyme, and 50 μM inhibitor in duplicate, according to the manufacturer's instructions. […] The reaction product, CoASH, was detected spectrophotometrically by reaction with 5,5′-dithiobis-2-nitrobenzoic acid (DTNB). Assays were carried out at 30° C. for 30 minutes, conditions which had previously been determined in kinetic assays to sufficient to achieve steady state.

Turning to `CC(=O)NCCSCC(=O)NCCCNCCCCN` [3a], the “sensitivity of normal fibroblasts compared with cancer cell lines” value in the data set on GT41F skin fibroblasts is listed as “less sensitive”. Further, the cell viability retained in the data set on GT41F skin fibroblasts (spd-3a 1 μM) is reported as about 60%. The “suppression of 3-day cell viability in combination with camptothecin” value in the data set on H358 lung cancer cells (3a + CPT 5 nM 18 hours) is listed as “effective”.

With `CC[C@@]1(O)C(=O)OCc2c1cc1n(c2=O)Cc2cc3ccccc3nc2-1` [camptothecin], the “2-day cumulative cell viability relative to untreated, single agent” value in the data set with H358 lung cancer cells (1a increasing concentrations, camptothecin 5 nM 18 hour) is “no effect”.

Take `CC(C)(COP(=O)(O)OP(=O)(O)OC[C@H]1O[C@@H](n2cnc3c(N)ncnc32)[C@H](O)[C@@H]1OP(=O)(O)O)[C@@H](O)C(=O)NCCC(=O)NCCSCC(=O)NCCCNCCCCN` [1a, spermidine[N1]-CoA]: in the data set on H358 lung cancer cells (5 nM camptothecin + increasing concentrations of 1a), the “2-day cell viability, % of untreated cell viability” value is given as “less than 10%”. Besides, the “suppression of p300HAT-mediated incorporation of acetyl groups relative to control enzyme” value at p300 catalytic domain (50 μM inhibitor, H3 peptide substrate, FIG. 1C) came out at 88%.

With `CC(=O)NCCSCC(=O)NCCCNCCCCNCCCN` [spm-3], the “sensitivity of normal fibroblasts compared with cancer cell lines” value in the data set with GT41F skin fibroblasts is listed as “sensitivity similar to that of H358 lung cancer cells”. Besides, in the data set on H358 lung cancer cells (single agent), the “3-day cell viability, single agent” value was “effective as single agents”. Besides, the “p300 HAT inhibition in vitro” value on p300 catalytic domain (kit assay, 2a at 50 μM) is on record as “HAT inhibitors”.
